Reference: patent EP0115547B1 (priority 1983, dated 1984)

Test system: T7-Phagen
Details: pH 7

| Structure (SMILES) | 1n [N(t)/N(O)]=-1 zugehörige Bebrütungs- beziehungsweise Inkubationszeit [Minuten] | Kehrwert der pyrimidindimeräquivalenten Dosis | pyrimidindimeräquivalente Dosis [Mol - Minute/I] | Kehrwert der pyrimidin-dimeräquivalenten Dosis |
| --- | --- | --- | --- | --- |
| Cc1ncc(C[n+]2csc(CCO)c2C)c(N)n1 [Vitamin B1] | 291 | 0,03 l/Mol· Minute | 29 | – |
| CN(Cc1cnc2nc(N)nc(N)c2n1)c1ccc(C(=O)N[C@@H](CCC(=O)O)C(=O)O)cc1 [4-Desoxy-4-amino-10-methylfolsäure] | – | – | – | 11 1 Mol . Minute |
| CN(N=O)C(N)=O [Nitrosomethylharnstoff] | – | – | – | 0,76 1 Mol . Minute |
| CC(=O)N1CC1 [N-(Acetyl)-äthylenimin] | – | – | – | 33 1 Mol . Minute |
| CS(=O)(=O)OCCNCC(O)C(O)CNCCOS(C)(=O)=O (stereo not shown) [1,4-Di-{2'-(methylsulfonyl)-oxy-äthylamino}-1,4-di-{desoxy}-ery-thrit-dimethylsulfat] | – | – | – | 111 1 Mol . Minute |
